Test results reported in BindingDB's records for doi:10.1021/jm00124a018 (Institute of Cancer Research, 1989).

Molecular target: Thymidylate synthase (Mus musculus, L1210)
Test: Inhibitory concentration of compound to inhibit Thymidylate synthase (TS) in L1210 cells at conc. of 200 uM

IC50 | Compound
520 nM | CCN(Cc1ccc2nc[nH]c(=O)c2c1)c1ccc(C(=O)NC(CCC(=O)O)C(=O)O)cc1 (configuration not stated)
60 nM | CCN(Cc1ccc2nc(N)[nH]c(=O)c2c1)c1ccc(C(=O)NC(CCC(=O)O)C(=O)O)cc1 (configuration not stated)
